Assay results reported in US9328122B2, “7-substituted Hanfangichin B derivative, and preparation method and use thereof” (HANGZHOU BENSHENG PHARMACEUTICAL CO., LTD., priority 2012, dated 2016).
≈ marks a conversion by molar mass, not a printed value.

Experiments:
[1] = tested on: Jurkat (acute lymphoblastic leukemia) cells; test: MTT cell growth inhibition, leukemia cells; assay type: cell-based, human; conditions: Homo sapiens, Jurkat, 72 h, MTT
From the text: (§1) Leukemia cell lines: leukemia cell lines: K562adr (drug-resistant, chronic myeloid leukemia, CML), NB4 (acute promyelocytic leukemia, AML), Kasumi-1 (acute myeloid leukemia M2 type, AML-M2), Jurkat (acute lymphoblastic leukemia, ALL), all of which were donated by Cancer Research Institute of Zhejiang University, China; and H9 (acute lymphoblastic leukemia, ALL), which was purchased from China Center for Type Culture Collection.
(§2) Reagents: The standard sample of fangchinoline (FAN) was purchased from Ci Yuan Biotechnology Co., Ltd., Shaanxi, China; and the 7-substituted fangchinoline derivatives according to the present invention.
(§3) 6000 well-growing leukemia cells were obtained and inoculated into wells of a 96-well cell culture plate. The culture medium was a RPMI-1640 cell culture medium containing 10% fetal bovine serum. After adding the 7-substituted fangchinoline derivatives of different concentrations the next day and mixing uniformly, the plate was placed in a carbon dioxide cell incubator (5% CO2) at 37° C. and incubating for 72 hours. Then the viable cell concentration was determined by the MTT method.

[2] = tested on: Kasumi-1 (acute myeloid leukemia M2 type) cells; test: MTT cell growth inhibition, leukemia cells; assay type: cell-based, human; conditions: Homo sapiens, Kasumi-1, 72 h, MTT
From the text: as §1, §2, §3

[3] = tested on: RPMI 8226 (multiple myeloma) cells; test: MTT cell growth inhibition, multiple myeloma cells; assay type: cell-based, human; conditions: Homo sapiens, RPMI 8226, 72 h, MTT
Protocol: Myeloma cell lines: RPMI8226 (multiple myeloma), purchased from Fuxiang Bio-tech Co. Ltd., Shanghai, China.
as §3, with “well-growing” for “well-growing leukemia”, “incubated” for “incubating”

[4] = tested on: CNE (nasopharyngeal carcinoma) cells; test: MTT cell growth inhibition, solid tumor cells; assay type: cell-based, human
From the text: (§4) Hep-2 (laryngeal carcinoma), A549 (human lung cancer), CaES-17 (esophageal cancer cell), PC-3 (prostate cancer), CNE (nasopharyngeal carcinoma cell) and SK-OV-3 (ovarian cancer cell), all of which were purchased from China Center For Type Culture Collection; RKO (human colon adenocarcinoma cell), MGC-803 (human gastric cancer cell), MG-63 (osteosarcoma), and U87-MG (malignant glioma cell), all of which were purchased from Fuxiang Bio-tech Co. Ltd., Shanghai, China; PANC-1 (pancreatic cancer), Becap37 (human breast cancer cell), Hela (human cervical cancer cell) and Hep G2 (human liver cancer cell), all of which were donated by Cancer Research Institute of Zhejiang University, China.
as §3, with “human solid tumor” for “leukemia”, “DMEM High Glucose” for “a RPMI-1640”, “serum. The plate was placed in a carbon dioxide cell incubator (5% CO2) at 37° C. and incubated for 24 hours.” for “serum.”, “added with” for “adding the”, “concentration” for “concentrations the next day”, “incubated” for “incubating”

[5] = tested on: CaEs-17 (esophageal cancer) cells; test: MTT cell growth inhibition, solid tumor cells; assay type: cell-based, human
From the text: as §4
as §3, with “human solid tumor” for “leukemia”, “DMEM High Glucose” for “a RPMI-1640”, “serum. The plate was placed in a carbon dioxide cell incubator (5% CO2) at 37° C. and incubated for 24 hours.” for “serum.”, “added with” for “adding the”, “concentration” for “concentrations the next day”, “incubated” for “incubating”

[6] = tested on: PANC-1 (pancreatic cancer) cells; test: MTT cell growth inhibition, solid tumor cells; assay type: cell-based, human
From the text: as §4
as §3, with “human solid tumor” for “leukemia”, “DMEM High Glucose” for “a RPMI-1640”, “serum. The plate was placed in a carbon dioxide cell incubator (5% CO2) at 37° C. and incubated for 24 hours.” for “serum.”, “added with” for “adding the”, “concentration” for “concentrations the next day”, “incubated” for “incubating”

[7] = tested on: PC-3 (prostate cancer) cells; test: MTT cell growth inhibition, solid tumor cells; assay type: cell-based, human
From the text: as §4
as §3, with “human solid tumor” for “leukemia”, “DMEM High Glucose” for “a RPMI-1640”, “serum. The plate was placed in a carbon dioxide cell incubator (5% CO2) at 37° C. and incubated for 24 hours.” for “serum.”, “added with” for “adding the”, “concentration” for “concentrations the next day”, “incubated” for “incubating”

[8] = tested on: SK-OV-3 (ovarian cancer) cells; test: MTT cell growth inhibition, solid tumor cells; assay type: cell-based, human
From the text: as §4
as §3, with “human solid tumor” for “leukemia”, “DMEM High Glucose” for “a RPMI-1640”, “serum. The plate was placed in a carbon dioxide cell incubator (5% CO2) at 37° C. and incubated for 24 hours.” for “serum.”, “added with” for “adding the”, “concentration” for “concentrations the next day”, “incubated” for “incubating”

[9] = tested on: A549 (human lung cancer) cells; test: MTT cell growth inhibition, solid tumor cells; assay type: cell-based; conditions: Homo sapiens, A549, 72 h, MTT
From the text: as §4
as §3, with “human solid tumor” for “leukemia”, “DMEM High Glucose” for “a RPMI-1640”, “serum. The plate was placed in a carbon dioxide cell incubator (5% CO2) at 37° C. and incubated for 24 hours.” for “serum.”, “added with” for “adding the”, “concentration” for “concentrations the next day”, “incubated” for “incubating”

[10] = tested on: Becap-37 (human breast cancer) cells; test: MTT cell growth inhibition, solid tumor cells; assay type: cell-based
From the text: as §4
as §3, with “human solid tumor” for “leukemia”, “DMEM High Glucose” for “a RPMI-1640”, “serum. The plate was placed in a carbon dioxide cell incubator (5% CO2) at 37° C. and incubated for 24 hours.” for “serum.”, “added with” for “adding the”, “concentration” for “concentrations the next day”, “incubated” for “incubating”

[11] = tested on: Hela (human cervical cancer) cells; test: MTT cell growth inhibition, solid tumor cells; assay type: cell-based; conditions: Homo sapiens, Hela, 72 h, MTT
From the text: as §4
as §3, with “human solid tumor” for “leukemia”, “DMEM High Glucose” for “a RPMI-1640”, “serum. The plate was placed in a carbon dioxide cell incubator (5% CO2) at 37° C. and incubated for 24 hours.” for “serum.”, “added with” for “adding the”, “concentration” for “concentrations the next day”, “incubated” for “incubating”

[12] = tested on: Hep G2 (human liver cancer) cells; test: MTT cell growth inhibition, solid tumor cells; assay type: cell-based
From the text: as §4
as §3, with “human solid tumor” for “leukemia”, “DMEM High Glucose” for “a RPMI-1640”, “serum. The plate was placed in a carbon dioxide cell incubator (5% CO2) at 37° C. and incubated for 24 hours.” for “serum.”, “added with” for “adding the”, “concentration” for “concentrations the next day”, “incubated” for “incubating”

[13] = tested on: Hep-2 (laryngeal carcinoma) cells; test: MTT cell growth inhibition, solid tumor cells; assay type: cell-based; conditions: Homo sapiens, Hep-2, 72 h, MTT
From the text: as §4
as §3, with “human solid tumor” for “leukemia”, “DMEM High Glucose” for “a RPMI-1640”, “serum. The plate was placed in a carbon dioxide cell incubator (5% CO2) at 37° C. and incubated for 24 hours.” for “serum.”, “added with” for “adding the”, “concentration” for “concentrations the next day”, “incubated” for “incubating”

[14] = tested on: MG-63 (osteosarcoma) cells; test: MTT cell growth inhibition, solid tumor cells; assay type: cell-based; conditions: Homo sapiens, MG-63, 72 h, MTT
From the text: as §4
as §3, with “human solid tumor” for “leukemia”, “DMEM High Glucose” for “a RPMI-1640”, “serum. The plate was placed in a carbon dioxide cell incubator (5% CO2) at 37° C. and incubated for 24 hours.” for “serum.”, “added with” for “adding the”, “concentration” for “concentrations the next day”, “incubated” for “incubating”

[15] = tested on: MGC-803 (human gastric cancer) cells; test: MTT cell growth inhibition, solid tumor cells; assay type: cell-based; conditions: MGC-803, 72 h, MTT
From the text: as §4
as §3, with “human solid tumor” for “leukemia”, “DMEM High Glucose” for “a RPMI-1640”, “serum. The plate was placed in a carbon dioxide cell incubator (5% CO2) at 37° C. and incubated for 24 hours.” for “serum.”, “added with” for “adding the”, “concentration” for “concentrations the next day”, “incubated” for “incubating”

[16] = tested on: RKO (human colon adenocarcinoma) cells; test: MTT cell growth inhibition, solid tumor cells; assay type: cell-based
From the text: as §4
as §3, with “human solid tumor” for “leukemia”, “DMEM High Glucose” for “a RPMI-1640”, “serum. The plate was placed in a carbon dioxide cell incubator (5% CO2) at 37° C. and incubated for 24 hours.” for “serum.”, “added with” for “adding the”, “concentration” for “concentrations the next day”, “incubated” for “incubating”

[17] = tested on: U87-MG (malignant glioma) cells; test: MTT cell growth inhibition, solid tumor cells; assay type: cell-based; conditions: Homo sapiens, U-87 MG, U87-MG, 72 h, MTT
From the text: as §4
as §3, with “human solid tumor” for “leukemia”, “DMEM High Glucose” for “a RPMI-1640”, “serum. The plate was placed in a carbon dioxide cell incubator (5% CO2) at 37° C. and incubated for 24 hours.” for “serum.”, “added with” for “adding the”, “concentration” for “concentrations the next day”, “incubated” for “incubating”

[18] = tested on: tumor; test: Antitumor activity compared with fangchinoline, overall statement; assay type: cell-based; conditions: tumor type not specified
[19] = relative to fangchinoline, Table 2

IC50 ([1]; read-out: IC50): 0.58 µg/mL (≈ 0.773 µM)
IC90 ([1]; read-out: IC90): 0.96 µg/mL (≈ 1.28 µM)
IC50 ([2]; read-out: IC50): 0.88 µg/mL (≈ 1.17 µM)
IC90 ([2]; read-out: IC90): 2 µg/mL (≈ 2.67 µM)
IC50 ([3]; read-out: IC50): < 0.125 µg/mL
IC90 ([3]; read-out: IC90): 0.13 µg/mL (≈ 0.173 µM)
IC50 ([4]; Homo sapiens, CNE, 72 h, MTT, read-out: IC50): 0.87 µg/mL (≈ 1.16 µM)
IC90 ([4]; Homo sapiens, CNE, 72 h, MTT, read-out: IC90): 2.2 µg/mL (≈ 2.93 µM)
IC50 ([5]; Homo sapiens, CaEs17, CaEs-17, 72 h, MTT, read-out: IC50): 0.43 µg/mL (≈ 0.573 µM)
IC90 ([5]; Homo sapiens, CaEs17, CaEs-17, 72 h, MTT, read-out: IC90): 1.99 µg/mL (≈ 2.65 µM)
IC50 ([6]; Homo sapiens, PANC-1, 72 h, MTT, read-out: IC50): 1.03 µg/mL (≈ 1.37 µM)
IC90 ([6]; Homo sapiens, PANC-1, 72 h, MTT, read-out: IC90): 3.17 µg/mL (≈ 4.23 µM)
IC50 ([7]; Homo sapiens, PC-3, 72 h, MTT, read-out: IC50): 1.49 µg/mL (≈ 1.99 µM)
IC90 ([7]; Homo sapiens, PC-3, 72 h, MTT, read-out: IC90): 3.96 µg/mL (≈ 5.28 µM)
IC50 ([8]; Homo sapiens, SK-OV-3, 72 h, MTT, read-out: IC50): 1.03 µg/mL (≈ 1.37 µM)
IC90 ([8]; Homo sapiens, SK-OV-3, 72 h, MTT, read-out: IC90): 3.85 µg/mL (≈ 5.13 µM)
IC50 ([9]; read-out: IC50): 1.84 µg/mL (≈ 2.45 µM)
IC90 ([9]; read-out: IC90): 6.34 µg/mL (≈ 8.45 µM)
IC50 ([10]; Homo sapiens, Becap-37, 72 h, MTT, read-out: IC50): 0.59 µg/mL (≈ 0.787 µM)
IC90 ([10]; Homo sapiens, Becap-37, 72 h, MTT, read-out: IC90): 2.09 µg/mL (≈ 2.79 µM)
IC50 ([11]; read-out: IC50): 0.9 µg/mL (≈ 1.2 µM)
IC90 ([11]; read-out: IC90): 2.96 µg/mL (≈ 3.95 µM)
IC50 ([12]; Homo sapiens, HepG2, Hep G2, 72 h, MTT, read-out: IC50): 0.55 µg/mL (≈ 0.733 µM)
IC90 ([12]; Homo sapiens, HepG2, Hep G2, 72 h, MTT, read-out: IC90): 2.23 µg/mL (≈ 2.97 µM)
IC50 ([13]; read-out: IC50): 1.76 µg/mL (≈ 2.35 µM)
IC90 ([13]; read-out: IC90): 5.66 µg/mL (≈ 7.55 µM)
IC50 ([14]; read-out: IC50): 0.6 µg/mL (≈ 0.8 µM)
IC90 ([14]; read-out: IC90): 1.3 µg/mL (≈ 1.73 µM)
IC50 ([15]; read-out: IC50): 0.4 µg/mL (≈ 0.533 µM)
IC90 ([15]; read-out: IC90): 4.14 µg/mL (≈ 5.52 µM)
IC50 ([16]; Homo sapiens, RKO, 72 h, MTT, read-out: IC50): 0.34 µg/mL (≈ 0.453 µM)
IC90 ([16]; Homo sapiens, RKO, 72 h, MTT, read-out: IC90): 0.79 µg/mL (≈ 1.05 µM)
IC50 ([17]; read-out: IC50): 0.71 µg/mL (≈ 0.947 µM)
IC90 ([17]; read-out: IC90): 1.73 µg/mL (≈ 2.31 µM)
Compound: COc1ccc2cc1Oc1ccc(cc1)C[C@H]1c3cc(c(OC)cc3CCN1C)Oc1c(OCC(O)CN3CCCCC3)c(OC)cc3c1[C@H](C2)N(C)CC3 (stereo partly shown) [BS-FC-403]
anti-CNE activity increase over fangchinoline [4, 19]: ~3 fold
anti-CaEs-17 activity increase over fangchinoline [5, 19]: ~4 fold
anti-PANC-1 activity increase over fangchinoline [6, 19]: ~3 fold
anti-PC-3 activity increase over fangchinoline [7, 19]: ~3 fold
anti-SK-OV-3 activity increase over fangchinoline [8, 19]: ~3 fold
anti-Becap37 activity increase over fangchinoline [10, 19]: ~3 fold
anti-Hep G2 activity increase over fangchinoline [12, 19]: ~3 fold
anti-RKO activity increase over fangchinoline [16, 19]: ~3 fold
antitumor activity compared with that of fangchinoline [18]: significantly superior
